{"source": "PubChem BioAssay AID1996"}
{"details": "buffer; pH 7.4; 200.0 µM", "units": {"solubility kinetic": "µg/mL"}}
{"smiles": "CCOc1c(C)cnc2c1c(=O)n(Cc1ccccc1F)c(=O)n2C", "solubility kinetic": 15.8}
{"smiles": "Cc1ccc(N2C(=S)NC3c4ccccc4OC2(C)C3C(=O)N(C)C)cc1", "note": "(stereo unspecified)", "solubility kinetic": 50.9}
{"smiles": "Cc1cccc2cc(COC(=O)c3cccc([N+](=O)[O-])c3)c(=O)[nH]c12", "solubility kinetic": 1.5}
{"smiles": "Cc1cc(NC(=O)C2CC2)ccc1NC(=O)c1cccs1", "solubility kinetic": 13.1}
{"smiles": "COc1ccc2[nH]cc(C(=O)CN3CC(C)CC(C)C3)c2c1", "note": "(stereo unspecified)", "solubility kinetic": "> 45.1"}
{"smiles": "CCOC(=O)C1(CC2CC2)CCN(Cc2ccc(C(=O)OC)cc2)CC1", "solubility kinetic": 42.8}
{"smiles": "CNC(=O)CCc1ccc(OC)cc1", "solubility kinetic": "> 29"}
{"smiles": "O=C(CCc1nc2ccccc2s1)OCC(=O)c1ccc[nH]1", "solubility kinetic": 14.2}
{"smiles": "O=C(Nc1ccccc1C(F)(F)F)N1CCN(c2ccccn2)CC1", "solubility kinetic": 49.9}
{"smiles": "CCCOc1ccc(N2C(=O)CC(NCC#N)C2=O)cc1", "note": "(stereo unspecified)", "solubility kinetic": 41}
{"smiles": "CNC(=O)c1cccc2nc3ccccc3nc12", "solubility kinetic": "> 35.6"}
{"smiles": "COC(=O)c1ccc(Oc2nc(SC)nc(N(C)C)n2)cc1", "solubility kinetic": 2.1}
{"smiles": "CCOC(=O)/C(O)=C(\\C#N)c1nc2ccccc2[nH]1", "solubility kinetic": "> 38.6"}
{"smiles": "Cn1c(C(=O)N2CCC(C(N)=O)CC2)cc2cc(Cl)ccc21", "solubility kinetic": 1.2}
{"smiles": "Cc1ccc([N+](=O)[O-])cc1S(=O)(=O)Nc1cccc(S(=O)(=O)NC2=NCCC2)c1", "solubility kinetic": "> 65.8"}
{"smiles": "COCC(C)n1c(SCC(=O)NC(=O)NCc2ccccc2)nc2ccccc2c1=O", "note": "(stereo unspecified)", "solubility kinetic": 2.7}
{"smiles": "Cc1ccc2oc(=O)n(CCCOc3ccccc3C)c2c1", "solubility kinetic": 0.9}
{"smiles": "O=C(/C=C/c1ccccc1)NC(=O)c1ccccc1O", "solubility kinetic": 1.4}
{"smiles": "CN1C(=O)C2(OCCCO2)c2cc(Cl)ccc21", "solubility kinetic": "> 38.1"}
{"smiles": "Nc1ccc(SCC(=O)Nc2cccc([N+](=O)[O-])c2)cc1", "solubility kinetic": "> 45.5"}
{"smiles": "O=C(CCCO)NC1Cc2ccccc2C1", "solubility kinetic": 31.7}
{"smiles": "COc1ccccc1C(C[N+](=O)[O-])c1c[nH]c2ccccc12", "note": "(stereo unspecified)", "solubility kinetic": 9}
{"smiles": "COc1ccc(Cl)cc1NC(=S)NCc1cccs1", "solubility kinetic": 37.3}
{"smiles": "CCC(C)Nc1nc(N)c([N+](=O)[O-])c(NC2CCCCC2)n1", "note": "(stereo unspecified)", "solubility kinetic": "< 0.1"}
{"smiles": "Cc1onc(-c2c(F)cccc2Cl)c1C(=O)NCCO", "solubility kinetic": "> 44.8"}
{"smiles": "Oc1ccccc1-c1nc(NCc2cccnc2)c2ccccc2n1", "solubility kinetic": "< 0.2"}
{"smiles": "Cc1ccccc1/C=C/c1cccc[n+]1C.[I-]", "solubility kinetic": "> 50.6"}
{"smiles": "Cn1c(/C=C/c2cccc(Br)c2)nc2ccccc2c1=O", "solubility kinetic": 0.7}
{"smiles": "O=C(O)Cn1cc(C(=O)c2ccccc2F)c2ccccc21", "solubility kinetic": 44.5}
{"smiles": "O=Cc1ccc(-c2ccc([N+](=O)[O-])cc2Cl)o1", "solubility kinetic": 5.2}
{"smiles": "O=C1NC(=Nc2ccccc2Cl)SC1(CO)CO", "solubility kinetic": 42.3}
{"smiles": "CSc1ncccc1C(=O)Nc1cc(Cl)ccc1N1CCOCC1", "solubility kinetic": 4.4}
{"smiles": "COc1ccc(S(=O)(=O)NC(C)C(=O)NCc2ccncc2)cc1C", "note": "(stereo unspecified)", "solubility kinetic": 51.9}
{"smiles": "CCNC(=S)NNC(=O)CC(C)C", "solubility kinetic": "> 30.5"}
{"smiles": "Cc1cc2ccccn2c1C(=O)c1ccc(C#N)cc1", "solubility kinetic": 1.9}
{"smiles": "Cc1ccc(N2C(=O)CC(Sc3ncccn3)C2=O)cc1C", "note": "(stereo unspecified)", "solubility kinetic": 27.7}
{"smiles": "Cc1ccnc(NC(=O)c2ccc(Cl)s2)c1", "solubility kinetic": 16.1}
{"smiles": "CN1CCCC(C(O)(c2ccccc2)c2ccccc2)C1", "note": "(stereo unspecified)", "solubility kinetic": 40.8}
{"smiles": "CCc1ccc(C(=O)Nc2nc(C)cs2)s1", "solubility kinetic": 32.9}
{"smiles": "O=C(N/C(=C\\c1ccccc1)C(=O)N1CCCCC1)c1ccco1", "solubility kinetic": 42.4}
{"smiles": "Cc1noc(C)c1S(=O)(=O)Nc1cccc(CO)c1", "solubility kinetic": "> 42.3"}
{"smiles": "FC(F)Sc1nc2ccccc2[nH]1", "solubility kinetic": "> 30"}
{"smiles": "CCc1c(C)nc(N2CCN(c3ccccc3F)CC2)[nH]c1=O", "solubility kinetic": 5.6}
{"smiles": "COc1ccc(OC)c(NC(=O)CSc2nc(O)cc(=O)n2CC(C)C)c1", "solubility kinetic": "> 59"}
{"smiles": "COCCn1c(C)c(C)c2c(NCCc3ccccc3)ncnc21", "solubility kinetic": 34.8}
{"smiles": "Cc1cc2oc(=O)sc2cc1NS(=O)(=O)c1ccccc1", "solubility kinetic": 42.8}
{"smiles": "Cc1ccc(NC(=O)CCSc2ccccc2)c(C)c1", "solubility kinetic": "< 0.6"}
{"smiles": "NC(=O)c1ccc(Oc2ccc3c(c2)CCC3)c([N+](=O)[O-])c1", "solubility kinetic": 5.4}
{"smiles": "N#C/C(=C\\c1cn(CC(=O)O)c2ccccc12)C(=O)NCc1ccccc1", "solubility kinetic": 48.9}
{"smiles": "COc1ccc(OCCN2CCOCC2)cc1", "solubility kinetic": 30.9}
{"smiles": "Cc1ccc(Cl)cc1NC(=O)c1ccccn1", "solubility kinetic": 6.3}
{"smiles": "CCOC(=O)c1c(NC(=O)c2ccccc2C(=O)O)sc2c1CCCC2", "solubility kinetic": 41.5}
{"smiles": "COc1cccc(CN(C)C(=O)c2cc(S(=O)(=O)NC3CCCCC3)ccc2C)c1", "solubility kinetic": 45.3}
{"smiles": "Cc1c(C(=O)N(C)Cc2cccc(F)c2)oc2c(Cl)cccc12", "solubility kinetic": 3.6}
{"smiles": "Cc1ccc(NC(=O)c2cc(C)nc3ccccc23)cc1", "solubility kinetic": 2.1}
{"smiles": "CCc1nc(NCCO)c(C#N)c2c1CCCC2", "solubility kinetic": 35.5}
{"smiles": "CCOC(=O)c1cc([N+](=O)[O-])sc1N", "solubility kinetic": 4.6}
{"smiles": "O=C(Nc1nonc1-c1ccc(F)cc1)c1ccco1", "solubility kinetic": "> 41"}
{"smiles": "O=C(NC1CCN(c2ncccn2)CC1)c1c(F)cccc1F", "solubility kinetic": "> 47.7"}
{"smiles": "NC(=O)C1CC(=O)N(c2ccc(OCc3ccc([N+](=O)[O-])cc3)cc2)C1", "note": "(stereo unspecified)", "solubility kinetic": 20.4}
{"smiles": "COc1ccc(/C=C/C(=O)N2CCOCC2)cc1OC", "solubility kinetic": "> 41.6"}
{"smiles": "CC(C)CC(NC(=O)C1CCC(C)CC1)C(=O)NCc1ccco1", "note": "(stereo unspecified)", "solubility kinetic": 25.2}
{"smiles": "Cc1ccc(NC(=O)C2=CC=CN3CCS(=O)(=O)N=C23)cc1", "solubility kinetic": 11.6}
{"smiles": "FC(F)(F)c1ccnc(NCc2ccco2)n1", "solubility kinetic": 9.2}
{"smiles": "O=C(Nc1cc(Cl)ccc1Cl)c1cc(-c2ccco2)on1", "solubility kinetic": 0.7}
{"smiles": "N#CCCOC1(C#CCN2CCCC2)CCCCC1", "solubility kinetic": 32.2}
{"smiles": "CC(C(=O)OCC(=O)NC1CCCCC1)N1C(=O)c2ccccc2C1=O", "note": "(stereo unspecified)", "solubility kinetic": "> 53.8"}
{"smiles": "CNC(=O)COC(=O)CCC(=O)c1ccc(Cl)cc1", "solubility kinetic": 36.2}
{"smiles": "Cc1cccc2c(C(=O)O)c3cccc(C)c3nc12", "solubility kinetic": 34}
{"smiles": "O=C(/C=C/Nc1nccs1)C(F)(F)Cl", "solubility kinetic": 33.6}
{"smiles": "CCOc1ccc(OCCCCn2cnc3ccccc3c2=O)cc1", "solubility kinetic": 0.7}
{"smiles": "Cc1cc(=O)cc(C)n1-c1ccc(Cl)cc1", "solubility kinetic": 34.8}
{"smiles": "Cc1cnc(C(=O)OCc2c(C)cc(C(C)(C)C)cc2C)cn1", "solubility kinetic": 9}
{"smiles": "CCn1c(=O)c([N+](=O)[O-])c(NCC2CCCO2)c2ccccc21", "note": "(stereo unspecified)", "solubility kinetic": 47.5}
{"smiles": "O=c1oc(-c2ccco2)nc2sc3c(c12)CCCCC3", "solubility kinetic": "< 0.6"}
{"smiles": "CC(C)c1ccc([N+](=O)[O-])cc1S(=O)(=O)N1CCN(C)CC1", "solubility kinetic": "> 49.1"}
{"smiles": "O=C(NCC(=O)c1ccccc1)OCc1ccc([N+](=O)[O-])cc1", "solubility kinetic": 2.5}
{"smiles": "Cc1ccc(NC(=O)CNC(=O)c2ccc(C)s2)nc1", "solubility kinetic": "> 43.4"}
{"smiles": "O=C(CN1C(=O)NC2(CCCCCCC2)C1=O)Nc1c(Cl)cccc1Cl", "solubility kinetic": 7.4}
{"smiles": "CN(C(=O)c1ccco1)c1nc(-c2ccc(Cl)cc2)cs1", "solubility kinetic": 0.9}
{"smiles": "COC(=O)C1Cc2ccccc2CN1S(=O)(=O)c1ccc(F)cc1", "note": "(stereo unspecified)", "solubility kinetic": 35.4}
{"smiles": "O=C(NCCc1ccc(Cl)cc1)c1ccc2ccccc2n1", "solubility kinetic": 5.9}
{"smiles": "COc1ccc(-c2onc3ccc(C(=O)/C=C/N(C)C)cc23)cc1", "solubility kinetic": 9.3}
{"smiles": "COc1cccc(CC(=O)Nc2ccc(S(=O)(=O)N3CCCCC3)cc2)c1", "solubility kinetic": 10.1}
{"smiles": "CC(=O)Nc1ccc(SCC(=O)N(C)CC(=O)Nc2ccccc2Cl)cc1", "solubility kinetic": "> 60.9"}
{"smiles": "Cc1nc(CN(C)Cc2nc(Cc3ccccc3Cl)no2)cs1", "solubility kinetic": 44.3}
{"smiles": "CC(=O)c1ccc(N2CCCCC2)c(F)c1", "solubility kinetic": 12.1}
{"smiles": "CCCS(=O)(=O)c1csc(C(=O)OC)c1N", "solubility kinetic": 28.7}
{"smiles": "CC1CCN(CC(=O)Nc2nccs2)CC1", "solubility kinetic": "> 35.9"}
{"smiles": "Cc1cc(C)nc(Nc2cccc3ccccc23)n1", "solubility kinetic": 18.7}
{"smiles": "CC(C)c1ccc(N2C=Nc3ccc(C(C)C)cc3C2)cc1", "solubility kinetic": 2.8}
{"smiles": "CCOc1ccc(-n2c(C)c(C(C)=O)c3cc(O)ccc32)cc1", "solubility kinetic": "< 0.7"}
{"smiles": "CN(CC(=O)Nc1cccc(F)c1)C(=O)CC1CCCCC1", "solubility kinetic": 21.1}
{"smiles": "Cc1ccc(S(=O)(=O)NC2CC(C)(C)NC(C)(C)C2)cc1", "solubility kinetic": 40.5}
{"smiles": "O=C(Nc1ccccc1Cl)NC1CCCCCCC1", "solubility kinetic": 0.4}
{"smiles": "COc1ccc(NC(=O)COC(=O)CCC2CCCC2)c(OC)c1", "solubility kinetic": 17.4}
{"smiles": "Cc1ccc(C(=O)N/N=C\\c2ccccn2)cn1", "solubility kinetic": "> 36"}
{"smiles": "OC1/C(=C/c2ccccc2F)N2CCC1CC2", "note": "(stereo unspecified)", "solubility kinetic": "> 35"}
{"smiles": "O=C(Oc1cccc(C(=S)N2CCCCC2)c1)c1ccccc1", "solubility kinetic": 6}
{"smiles": "Cc1ccc2[nH]c3c(c2c1)SC(C)(C)CC3=O", "solubility kinetic": 0.8}
{"smiles": "C[Se]C[C@@H](N)C(=O)O.Cl", "solubility kinetic": "> 32.8"}
{"smiles": "O=C(NN=C1CCCCC1)c1ccccc1-n1cccc1", "solubility kinetic": "> 42.2"}
{"smiles": "O=C(NCCN1CCOCC1)c1ccc(Cl)c(S(=O)(=O)NCc2ccccc2)c1", "solubility kinetic": 63.2}
{"smiles": "COC(=O)NCC(c1ccco1)N1CCN(c2ccc(OC)cc2)CC1", "note": "(stereo unspecified)", "solubility kinetic": "> 53.9"}
{"smiles": "Cc1nc(-c2ccc(NC(=O)C3CC3)cc2)cs1", "solubility kinetic": 13.3}
{"smiles": "CC1SC(=S)N(c2ccc(N(C)C)cc2)C1=O", "note": "(stereo unspecified)", "solubility kinetic": 5.7}
{"smiles": "CSc1nc2c(c(=O)[nH]c(=O)n2C)n1Cc1ccc(Cl)cc1", "solubility kinetic": 1.2}
{"smiles": "CCOc1cc(C=O)ccc1OCCn1c([N+](=O)[O-])cnc1C", "solubility kinetic": 18.1}
{"smiles": "CC1=CCC2C(=O)N(c3ccc(OC(=O)c4ccco4)cc3)C(=O)C2C1", "note": "(stereo unspecified)", "solubility kinetic": 21.5}
{"smiles": "COc1ccc(NC(=O)Nc2cc(F)ccc2C)cc1", "solubility kinetic": 1.2}
{"smiles": "O=C(COC(=O)/C=C/c1cccs1)Nc1ccc(Cl)cc1F", "solubility kinetic": 3.7}
{"smiles": "COc1cccc(C(=O)Nc2nc3ccccc3s2)c1", "solubility kinetic": 1.6}
{"smiles": "O=C(COC(=O)/C=C/c1ccc(OC(F)F)cc1)Nc1ccc2[nH]c(=O)[nH]c2c1", "solubility kinetic": 5.3}
{"smiles": "O=C(NCCc1ccc(Cl)cc1)C(=O)c1c[nH]c2ccccc12", "solubility kinetic": 2.1}
{"smiles": "CCN(C(=O)CSc1nc2ccccc2c(=O)n1-c1cccc(C)c1)C1CCS(=O)(=O)C1", "note": "(stereo unspecified)", "solubility kinetic": 2.8}
{"smiles": "CC(C)C(=O)Nc1ccc(-c2nc3ncccc3o2)cc1", "solubility kinetic": 22.2}
{"smiles": "CC1CCN(C(=S)c2ccc(N(C)C)cc2)CC1", "solubility kinetic": 5.4}
{"smiles": "Cc1nc(NCc2ccccc2)sc1C(=O)Nc1ccccc1", "solubility kinetic": 0.8}
{"smiles": "O=C(NCCC(=O)N1CCc2ccccc21)c1ccco1", "solubility kinetic": "> 42.6"}
{"smiles": "CCN1CCN(Cc2cc(OC)c3c(c2)OCO3)CC1", "solubility kinetic": 33.9}
{"smiles": "COc1ccccc1C(=O)NC(=O)COC(=O)C1CCC1", "solubility kinetic": "> 43.7"}
